Experimental data taken from patent US10822317B2, “Methods and compositions for wound healing” (QBiotics Limited, priority 2013, dated 2020).

Experiments:
neutrophils = test: Induction of reactive oxygen burst by neutrophils; type: cell-based, human; conditions: 1 ng/ml to 100 μg/ml; 15 min; DHE, flow cytometry
Experimental: Neutrophils were isolated from fresh blood of a healthy human donor by lysis of a red blood cell pellet that had been obtained by Ficoll-Paque sedimentation. The neutrophils (˜4×10^6 cells/ml) were incubated with 10 μg/ml dihydroethidium (DHE) (Sigma-Aldrich) in complete culture medium at 37° C. for 15 min alongside an aliquot of unstained cells to be tested as unstained control. This incubation was followed by treatment with Compound 1 at a range of concentrations (0, 1 ng/ml, 10 ng/ml, 100 ng/ml, 1 μg/ml, 10 μg/ml, 100 μg/ml) for 15 min. The generation of reactive oxygen species following incubation was determined using a FACS Canto flow cytometer to measure fluorescence due to oxidation of DHE to the ethidium ion.

[1] = tested on: infected bone wound; infectious vasculitis in the ear; test: Veterinary case studies 8 and 9, tree kangaroo wounds; type: in vivo, Dendrolagus lumholtzi
Experimental: Seven dogs (Canis lupus familiaris) and one tree kangaroo (Dendrolagus humholzii) with chronic, non-healing wounds that were unresponsive to current veterinary standards-of-care for these indications were treated with Compound 1 by independent veterinarians. A second tree kangaroo and a spectacled flying fox (Pteropus conspicillatus) with wounds unsuited for initial treatment with current standards-of-care were also treated with Compound 1. All cases were managed as open wounds without the use of dressings or other bandaging during the course of treatment with Compound 1 and the subsequent period of wound resolution. Unless stated in individual case studies, no concomitant medications were used over the course of treatments with Compound 1.
The patient was treated for 1 month with injectable antibiotics ceftazidime (Fortum) and trimethoprim sulphamethoxazole (TMS). […] Within 10 minutes of the application of Compound 1 gel there was a purulent discharge from the treated area. • On presentation 8 days after the first treatment a purulent discharge was oozing from 2 of the 3 wounds on the leg. The other wound (smallest lesion on the heal) had contracted and commenced healing. A further treatment of 0.15 mL of 5 mg/mL gel formulation of Compound 1 was used to treat each of the two open wounds (one over the ankle joint, the other on the base of the foot pad). A slow IV. infusion of sodium iodide was also given. • A further 15 days later (23 days after initial treatment) several mLs of thick purulent pus was squeezed from the wound on the pad of the foot before forcing 0.15 mL of 5 mg/mL gel formulation of Compound 1 into the drained wound sinus. • One week later there was significant improvement. in the infection. A small piece of bone was removed from the hole in the foot pad. There was no pus evident but there was a serous discharge. A further 0.2 mL. of the Compound 1 gel was applied to each of lesions, one over the ankle, the other underneath the foot. A slow IV infusion of sodium iodide was also delivered. Limb is now weight bearing. but the heal and foot pad is still very firm with inflammation and the animal's gait is very uneven and strongly favouring the undamaged hind leg. • A further 15 days later the wound over the ankle joint had fully closed and hair was growing back. The wound on the heal of the foot pad had contracted to less than 50% of its size at the previous visit and the surrounding skin and tissue is soft, pliable and normal.
Case notes: • The patient presented as a young injured animal found in the wild. • Patient was very weak, dehydrated and anaemic. […] Patient was placed on fluid therapy and medicated with anti-nausea drug maropitant citrate (cerenia) and two injectable antibiotic formulations Tribacteral (trimethoprim, sulfadiazine) and ceftazidime (fortum). • After 9 days on a fluid drip the patient's condition had improved but there was trauma to the right ear and likely infectious vasculitis and gangrene. Surgery was not possible because of significant anaesthetic risk due to the patient's highly compromised condition. Instead, treatment with a gel formulation of Compound 1 was initiated. • Three treatments of 0.1 mL of 5 mg/mL strength Compound 1 gel were applied to the affected area at 7 day intervals. The only concurrent medication during this time was the cephalosporin antibiotics deftazidime (fortum). • At 7 days after the first treatment of Compound 1 gel, a tightly adhering eschar covered the wound surface.

[2] = tested on: immortalised human keratinocyte cells (HaCaT); test: Scratch repopulation and closure with HaCaT; type: cell-based; conditions: 48 hours, ± standard error
Experimental: The ability of immortalised human keratinocyte cells (HaCaT) to migrate across a scratch wound made in a confluent monolayer following treatment with either Compound 1 or Compound 37 was determined by the following method.
Trypsinised HaCaT cells were seeded at a cell density of 7.4×10^4 cells/mL in 24-well BD Falcon flat-bottomed, tissue culture plates (VWR International, UK) in 1 mL Dulbecco's Modified Eagle Medium (DMEM), supplemented with L-glutamine (2 mM), antibiotics (100 U/mL penicillin G sodium, 100 μg/mL streptomycin sulphate and 0.25 μg/mL amphotericin B); and 10% foetal calf serum (all Invitrogen Ltd., UK) to give a cell density of 7.4×10^4 cells seeded in each well. The cells were then maintained at 37° C. in a 5% CO2/95% air atmosphere overnight. The following morning, the 10% foetal calf serum-containing DMEM was replaced with serum-free DMEM and the HaCaT cells were subsequently serum-starved in DMEM for 48 hr.
After 48 hr, the serum-free DMEM was removed and a single scratch ‘wound’ made with a sterile pipette across each cell layer. Following washing twice in 1 mL PBS, Compound 1- or Compound 37-containing medium (1 mL) was added to each well. This medium consisted of DMEM, supplemented with L-glutamine (2 mM), antibiotics (as above) and 1% foetal calf serum, in addition to Compound 1 or Compound 37 at final concentrations of 0, 0.001, 0.01, 0.1, 1.0, 10 or 100 μg/mL. There were three replicate wells per concentration for each compound.
The HaCaT cultures were maintained at 37° C. in a 5% CO2/95% air atmosphere and the repopulation of the denuded ‘wound’ areas monitored by Time-Lapse Confocal Microscopy (Leica TCS SP5 Confocal Microscope; Leica Microsystems UK Ltd., UK) at 100× magnification, with digital images captured at fixed positions every 20 min over a 48 h period. The digital image sequences were exported and prepared as .avi movie files, using LAS AF Software (Leica Microsystems). The rates of HaCaT wound closure in vitro were quantified using ImageJ Software (ImageJ 1.37v; http://rsb.info.nih.gov/ij/). The data was analysed by One Way Analysis of Variance with post-test Tukey analysis. Each experiment was performed on 3 separate occasions.

[3] = tested on: immortalised human keratinocyte cells (HaCaT); test: Scratch repopulation and closure with HaCaT; type: cell-based; conditions: 48 hrs; 0.001, 0.01 and 0.1 μg/ml; p<0.01
[4] = Case 8, 15 days after the fourth application

CC=C(C)C(=O)OC1C(C)C2(O)C(C3OC3(CO)C(O)C3(O)C(=O)C(C)=CC32)C2C(C)(C)C12OC(=O)C(C)CC (centres unmarked) [Compound 1, 12-tigloyl-13-(2-methylbutanoyl)-6,7-epoxy-4,5,9,12,13,20-hexahydroxy-1-tigliaen-3-one]
production of reactive oxygen species (ROS) (neutrophils): induced the significant production of reactive oxygen species (ROS) in a dose-dependent manner | time to purulent discharge from the treated area ([1]; Case 8, tree kangaroo, infected bone wound, first application 0.1 mL gel 5 mg/mL per lesion): ≤ 10 min | wound outcome, wound over the ankle joint ([1]; Case 8, 4 applications gel 5 mg/mL, 15 days after the fourth application): fully closed | limb function [1, 4]: fully weight bearing | wound on the heal of the foot pad, % of its size at the previous visit [1, 4]: less than 50% | reduction of wound area ([1]; Case 9, tree kangaroo, ear, 3 x 0.1 mL gel 5 mg/mL at 7 day intervals, 14 days after initial treatment): approximately 50% | wound status ([1]; Case 9, 25 days): healthy tissue was present over the entire area of the wound | wound outcome ([1]; Case 9, 67 days): totally resolved and there was full hair coverage over the ear | % of scratch wound area remaining open after treatment ([2]; 0.001 μg/ml): 8.6 ± 9.4% | % of scratch wound area remaining open after treatment ([2]; 0.01 μg/ml): 19.7 ± 9.3% | % of scratch wound area remaining open after treatment ([2]; 0.1 μg/ml): 21.4 ± 5.8% | % of scratch wound area remaining open after treatment ([2]; 1.0 μg/ml): 35.4 ± 7.9% | % of scratch wound area remaining open after treatment ([2]; 10 μg/ml): 45.5 ± 7.3% | rate of scratch closure compared to the control treatment [3]: significantly increased
